Assay results published in US20190144867A1, “METHOD FOR MITIGATING METASTASIS” (RESEARCH FOUNDATION OF THE CITY UNIVERSITY OF NEW YORK, priority 2015, published 2019).

Test system: SN12L1 metastatic renal carcinoma cells
Assay: Modified Boyden chamber 3D migration/invasion with interstitial flow
Assay type: cell-based, human
Conditions: for migration response to interstitial flow following GAG enzymatic cleavage: 4h and 24h exposure to interstitial flow, normalized by no-flow controls; for normalized migration response to interstitial flow with MAPK signaling inhibitors: flow normalized to no-flow controls, FIG. 5
Experimental: A modified Boyden chamber was used to apply interstitial flow forces to cells in a three-dimensional culture, mimicking those experienced by tumor cells within the interstitium. See Integr Biol (Camb) 2013; 5(11): 1334-43 for details. Briefly, cells were suspended in type I collagen (4 mg/ml), exposed to fluid flow forces via a Darcy flow apparatus (4 h), permitted to migrate for 24 h (without flow) through Transwell chambers (with 8μm pore filters) towards 1 nM TGF-α. Invasion rates were quantified by counting cells present on the underside of the filters. For these tests, only a 4 hour exposure to flow at the lowest shear stress level was applied using a 1 cm H2O hydrostatic pressure differential to drive the flow. Shear stress transmitted to the cell surface through the glycocalyx layer was estimated to be approximately 0.84 dynes/cm^2 and the interstitial flow velocity was 0.83 μm/sec as measured previously, which is in the physiologic range of tumor interstitial flows (0.1-2.0 μm/sec). In addition, baseline migration rates (without flow) for all clonal lines were determined. Based on proliferation rates, HS expression, baseline and flow-mediated migration rates, the CtGFP and shORG-8 cell lines were selected as a paired match for continued experimentation.

Compound | migration response to interstitial flow following GAG enzymatic cleavage (FIG. 4) | migration response to interstitial flow following GAG enzymatic cleavage (FIG. 4, listed as Hyaluronidase) | normalized migration response to interstitial flow with MAPK signaling inhibitors | migration response to interstitial flow following GAG enzymatic cleavage (FIG. 4, listed as heparinase)
hyaluronidase | greatly suppressed | significantly inhibit | – | –
N#CC(=C(/N)Sc1ccccc1N)/C(C#N)=C(\N)Sc1ccccc1N [U0126, reference compound] | – | – | inhibited flow-induced enhancement of migration | –
O=C1c2ccccc2-c2n[nH]c3cccc1c23 [JNK Inhibitor II, reference compound] | – | – | inhibited flow-induced enhancement of migration | –
C[S+]([O-])c1ccc(-c2nc(-c3ccncc3)c(-c3ccc(F)cc3)[nH]2)cc1 (stereo not shown) [SB 203580, reference compound] | – | – | inhibited flow-induced enhancement of migration | –
heparinase III | greatly suppressed | – | – | significantly inhibit
